A short description of series [1]: Drug concentration in tumor of CB17 SCID mouse xenografted with human MCF7 cells harboring ESR1 D538G mutant at 10 mg/kg, po qd for 3 days and measured after 6 hrs last dose by LC-MS/MS analysis. In kind it is ADME, organism-based, Neoplasm. Particulars: time 3 day, read-out: Ct. Background: In xenograft studies the graft and the host belong to different species.

Series [2] is described as follows: Downregulation of ERalpha protein expression in tumor of CB17 SCID mouse xenografted with human MCF7 cells harboring wild type ESR1 at 30 mg/kg, po qd for 3 days and measured after 3 hrs last dose by Western blot analysis relative to control. Particulars: time 3 day. Type of series: functional.
A short description of series [3]: Drug concentration in tumor of CB17 SCID mouse xenografted with human MCF7 cells harboring wild type ESR1 at 30 mg/kg, po qd for 3 days and measured after 6 hrs last dose by LC-MS/MS analysis. In kind it is ADME, organism-based, Neoplasm. Particulars: time 3 day, read-out: Ct.
The target of a further series is T1, Cytochrome P450 2C8 (Homo sapiens, UniProt P10632).
T1 sequence (P10632 whole entry): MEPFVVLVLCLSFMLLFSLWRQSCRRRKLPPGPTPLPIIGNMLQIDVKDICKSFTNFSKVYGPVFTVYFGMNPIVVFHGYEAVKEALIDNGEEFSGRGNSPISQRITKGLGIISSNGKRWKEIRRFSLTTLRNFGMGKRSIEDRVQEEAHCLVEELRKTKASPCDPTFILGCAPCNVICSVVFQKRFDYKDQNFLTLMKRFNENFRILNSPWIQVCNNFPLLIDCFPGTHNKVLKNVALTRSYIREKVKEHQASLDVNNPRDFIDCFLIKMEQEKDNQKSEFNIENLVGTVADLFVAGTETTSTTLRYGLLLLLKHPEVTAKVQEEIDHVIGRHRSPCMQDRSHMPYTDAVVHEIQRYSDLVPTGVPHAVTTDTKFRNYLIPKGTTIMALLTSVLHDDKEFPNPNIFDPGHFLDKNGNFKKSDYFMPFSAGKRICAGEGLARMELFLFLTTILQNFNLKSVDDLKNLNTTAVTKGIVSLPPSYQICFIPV
Briefly: Inhibition of CYP2C8 in human liver microsomes preincubated for 5 mins in presence substrate followed by NADPH addition and measured after 10 mins by LC-MS/MS analysis. Type of series: ADME, Microsome. On the technique in general: Liver microsomes are a subcellular fraction often used to study metabolism.

A short description of series [4]: Drug concentration in plasma of CB17 SCID mouse xenografted with human MCF7 cells harboring ESR1 Y537S mutant at 30 mg/kg, po qd for 3 days and measured after 6 hrs last dose by LC-MS/MS analysis. Particulars: time 3 day. In kind it is ADME, organism-based.
The nature of series [5]: Cmax in Beagle dog at 1 mg/kg, po and measured upto 24 hrs by LC-MS/MS analysis. In kind it is ADME, organism-based, Canis lupus familiaris. Also on record: time < 24 hrs, dose 1 mg/kg, route po. Particulars: in vivo.
Series [6] can be described thus: Drug concentration in tumor of CB17 SCID mouse xenografted with human MCF7 cells harboring wild type ESR1 at 10 mg/kg, po qd for 3 days and measured after 6 hrs last dose by LC-MS/MS analysis. Type of series: ADME, organism-based, Neoplasm. Particulars: time 3 day, read-out: Ct.
The nature of series [7]: Toxicity in CB17 SCID mouse xenografted with human MCF7 cells harboring ESR1 D538G mutant assessed as body weight change at 30 mg/kg,po qd for 4 weeks. In kind it is organism-based. Particulars: in vivo, 672 h.
Series [8] relates to MCF7. The series can be described thus: Antitumor activity against human MCF7 cells harboring wild type ESR1 xenografted in CB17 SCID mouse assessed as tumor growth inhibition at 10 mg/kg, po qd for 5 weeks. In kind it is functional. Particulars: MCF7, 840 h, read-out: TGI.
The test system of series [9] is MCF7. The series can be described thus: Antitumor activity against human MCF7 cells harboring ESR1 Y537S mutant xenografted in CB17 SCID mouse assessed as tumor growth inhibition at 30 mg/kg, po qd for 4 weeks. In kind it is functional. Particulars: MCF7, 672 h, read-out: TGI.
Series [10] has as its target Protein cereblon/Estrogen receptor (Homo sapiens, UniProt P03372+Q96SW2). The series can be described thus: Protac activity at human ERalpha in ER positive human MCF7 cells assessed as reduction in ERalpha protein level at 0.1 to 30 nM by Western blot analysis. Particulars: dose 0.1-30 nM. In kind it is cell-based. (A western blot detects proteins with antibodies after separation by electrophoresis.)

The target in a further series is Cytochrome P450 3A4 (Homo sapiens, UniProt P08684). Briefly: Inhibition of CYP3A4 in human liver microsomes using midazolam as substrate preincubated for 5 mins followed by NADPH addition and measured after 10 mins by LC-MS/MS analysis. In kind it is ADME, Microsome.
Cytochrome P450 3A4, sequence (P08684 whole entry): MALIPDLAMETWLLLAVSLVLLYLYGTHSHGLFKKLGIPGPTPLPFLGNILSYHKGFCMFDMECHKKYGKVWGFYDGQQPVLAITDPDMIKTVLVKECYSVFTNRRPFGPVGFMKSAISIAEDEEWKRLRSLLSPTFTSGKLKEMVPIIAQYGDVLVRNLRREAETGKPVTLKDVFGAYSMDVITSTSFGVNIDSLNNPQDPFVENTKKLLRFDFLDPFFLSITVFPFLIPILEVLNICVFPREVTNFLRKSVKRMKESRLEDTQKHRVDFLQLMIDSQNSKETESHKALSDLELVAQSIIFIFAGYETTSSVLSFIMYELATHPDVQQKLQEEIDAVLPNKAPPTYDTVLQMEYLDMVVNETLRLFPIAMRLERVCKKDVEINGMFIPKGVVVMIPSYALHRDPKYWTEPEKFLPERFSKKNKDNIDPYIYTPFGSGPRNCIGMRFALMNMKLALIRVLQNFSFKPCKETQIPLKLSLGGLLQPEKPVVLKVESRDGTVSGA
Series [11] relates to MCF7. Briefly: Antitumor activity against human MCF7 cells harboring ESR1 D538G mutant xenografted in CB17 SCID mouse assessed as tumor growth inhibition at 10 mg/kg, po qd for 4 weeks and measured 1 week post last dose. Type of series: functional, organism-based.

Activity calls are given as the source filed them. No cut-off for these calls is given here. Bounds are passed on as bounds.

Protein cereblon/Estrogen receptor, sequence (P03372 whole entry, looked up): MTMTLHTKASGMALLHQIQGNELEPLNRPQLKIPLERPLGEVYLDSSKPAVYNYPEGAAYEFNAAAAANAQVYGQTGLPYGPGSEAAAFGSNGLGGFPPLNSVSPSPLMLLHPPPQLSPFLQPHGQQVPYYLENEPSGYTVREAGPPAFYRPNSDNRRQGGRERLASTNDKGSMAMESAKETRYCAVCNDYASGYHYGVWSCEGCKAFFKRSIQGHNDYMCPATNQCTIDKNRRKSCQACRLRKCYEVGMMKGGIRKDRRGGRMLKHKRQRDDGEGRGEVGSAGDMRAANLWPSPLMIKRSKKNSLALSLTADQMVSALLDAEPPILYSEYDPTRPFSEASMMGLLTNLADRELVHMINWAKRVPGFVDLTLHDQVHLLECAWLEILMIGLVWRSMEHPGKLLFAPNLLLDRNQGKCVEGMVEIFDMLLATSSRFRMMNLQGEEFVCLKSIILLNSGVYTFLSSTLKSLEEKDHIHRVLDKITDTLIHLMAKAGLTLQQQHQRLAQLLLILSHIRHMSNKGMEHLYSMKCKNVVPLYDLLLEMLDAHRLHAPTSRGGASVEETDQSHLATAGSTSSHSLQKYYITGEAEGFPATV
Protein cereblon/Estrogen receptor, sequence (Q96SW2 whole entry, looked up): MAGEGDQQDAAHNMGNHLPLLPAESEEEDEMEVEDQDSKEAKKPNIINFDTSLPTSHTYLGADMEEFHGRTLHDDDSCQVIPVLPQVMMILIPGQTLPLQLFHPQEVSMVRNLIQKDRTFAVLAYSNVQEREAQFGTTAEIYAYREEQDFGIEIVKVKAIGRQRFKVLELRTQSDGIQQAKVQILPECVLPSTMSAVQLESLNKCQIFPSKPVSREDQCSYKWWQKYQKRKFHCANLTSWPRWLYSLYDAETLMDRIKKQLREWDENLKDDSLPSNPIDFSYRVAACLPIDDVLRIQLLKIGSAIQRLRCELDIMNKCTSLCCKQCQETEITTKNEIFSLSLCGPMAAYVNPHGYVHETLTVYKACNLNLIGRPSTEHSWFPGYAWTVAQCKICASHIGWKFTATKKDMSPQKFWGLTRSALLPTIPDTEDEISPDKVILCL

As a reminder, the IC50 is the concentration that inhibits the measured activity by half. A low value points to greater potency. As usually defined, the Cmax is the highest concentration seen after dosing. For the compound `C[C@@H]1Cc2c(ccc3[nH]ncc23)[C@@H](c2c(F)cc(N3CCC4(CCN(C(=O)CN5Cc6cc7c(cc6C5)C(=O)N(C5CCC(=O)NC5=O)C7=O)CC4)CC3)cc2F)N1CC(F)F` (stereo partly drawn), the concentration at 72 h worked out at 1050 ng/mL in series [1], 1470 ng/mL in series [3], 2830 ng/mL in [4] and 385 ng/mL in [6]. The values for the Activity in series [2], in series [7] and in [10] were 82%, “Non-Toxic” and “Dose-Dependent Effect”, respectively. Moreover, the 50% inhibitory concentration (IC50) against Cytochrome P450 2C8 and at Cytochrome P450 3A4 was above 10 µM each time. Besides, in series [5], the peak level (Cmax) was 87 ng/mL. Besides, the inhibition in vivo at 10 mg/kg with MCF7 [8] was determined as 24%. Besides, the inhibition in vivo at 30 mg/kg in the series with MCF7 [9] is 86%. The result in the series on MCF7 [11] was Active.

Values taken from ChEMBL document CHEMBL5321293, “Discovery of ERD-3111 as a Potent and Orally Efficacious Estrogen Receptor PROTAC Degrader with Strong Antitumor Activity” (J Med Chem, 2023).
